Source: US11872230B2, “Method of treating a methionine-dependent cancer” (Agency for Science, Technology and Research, priority 2018, dated 2024)
“Also recorded” adds a separate entry of the source. Where a SMILES comes first, the peptide text is derived from it. The star is where a group is joined. Cbz = O=C(OCc1ccccc1)*

Assays:
[1] = tested on: methylated histones in TS cells; assay: Protein turnover experiment (cycloheximide) of methylated histones in TS cells; type: cell-based, human; details: MG132 10 μM with 20 μg/ml cycloheximide
Method: (§1) 1.5×10^6 cells were lysed in Llaemli-SDS buffer and then sonicated. Total protein concentration was measured by Bradford assay. Total cell lysates were separated by SDS-PAGE and transferred onto nitrocellulose, followed by blocking in 5% (v/v) milk in Tris-buffered saline in Tween 20, probing with the indicated antibodies and visualized by chemiluminescence (Roche). Primary antibodies used were anti-β-Actin (sc-47778), anti-GAPDH (sc-32233) from Santa Cruz: anti-GLDC (ab97625), anti-H3 (ab1791), anti-H3 (dimethylK36) (ab9049), anti-MAT2A (ab77471), anti-MTR (ab9209), anti-H3 (trimethylK79) (ab2621), anti-MTHFR (ab125707), anti-MTAP (ab ab55517) from Abcam; anti-H3(trimethyl K4) (39159), anti-H3(trimethyl K27)(39155), anti-H3(trimethylK36)(61101) and anti-H3(trimethylK9)(39765) from Active Motif; anti-β-catenin (BD610154) from BD Biosciences; anti-SHMT2 (HPA020549) and anti-SAHH (WH0000191M8) from Sigma; anti-Symmetric Di-Methyl Arginine Motif (13222) from CST.
5×10^5 cells were treated with 20 μg/ml of cycloheximide (Sigma) and harvested for immunoblotting at indicated time points thereafter.

TS cells (lung TICs) [2] = assay: Intraperitoneal administration to NSG mice subcutaneously implanted with lung TICs; type: in vivo; details: cisplatin 4 mg/kg i.p., three days, 6 weeks
Excerpt: (§2) 5×10^5 single cells were mixed in a 1:1 mixture of serum free DMEM/F12 and Matrigel (BD) and injected subcutaneously into the flanks of 4-6 week old male and female NOD.Cg-Prkdc^scid Il2rg^tm1wjl SzJ (Jackson Laboratories). About 6 weeks later, or when tumor sizes exceed 2 cm in length, mice were sacrificed and tumors harvested for analysis. All animal experiments were approved by the Agency for Science Technology and Research Singapore—Biological Resource Centre. Mice were randomized by sex.
Since FIDAS5 appeared to more specifically disrupt the methionine cycle and inhibit cellular methylation activities compared to D9, it was sought to test whether its systemic delivery could impact the tumorigenic potential of TS cells. These highly tumorigenic cells were first subcutaneously implanted into NSG mice and FIDAS5 (40 mg/kg) or corn oil carrier was immediately administered via intraperitoneal injection for three consecutive days. After 6 weeks, mice transiently treated with FIDAS5 produced tumors that were much smaller than carrier-treated controls. […] To exclude the possibility of general cytotoxicity associated with the inhibitor on TS cells, TS cell-implanted NSG mice were treated with cisplatin (4 mg/kg), a frontline chemotherapeutic agent that broadly target bulk cancer cells in NSCLC tumors, in the same manner (FIG. 5i). […]

[3] = tested on: ATP levels in knockdown TS cells; assay: Steady-state ATP levels (CellTiter-Glo) in GLDC/SHMT2 knockdown TS cells; type: cell-based, human; details: GLDC (or SHMT2) knockdown cells; formate 0.5 mM or adenosine 200 μM
Method: (§3) Cells were seeded into 96-well plates at a density of 1,000 cells/well at 10 replicate wells per condition. Cells were then left to equilibrate at 37° C. for 3 h. ATP was then quantified using the CellTiter-GLo reagent (Promega). 5 biological replicates were used.

[4] = tested on: histone methylation in GLDC KD cells; assay: Western blot of methylated histones in GLDC KD cells with metabolite supplementation; type: cell-based, human; details: SAM 500 μM 48 h, formate 0.5 mM, methyl-THF 20 μM or adenosine 200 μM
Method: (§4) 1.5×10^6 cells were lysed in Llaemli-SDS buffer and then sonicated. Total protein concentration was measured by Bradford assay. Total cell lysates were separated by SDS-PAGE and transferred onto nitrocellulose, followed by blocking in 5% (v/v) milk in Tris-buffered saline in Tween 20, probing with the indicated antibodies and visualized by chemiluminescence (Roche).

[5] = tested on: histone methylation in TS cells; assay: Western blot of methylated histones in TS cells; type: cell-based, human
Method: as §1
(§5) To evaluate the methionine cycle as a therapeutic target in lung TICs, small molecule inhibitors that target enzymes within this pathway were employed, mimicking the effects of short-term methionine starvation (FIG. 5a). two inhibitors known to perturb methionine cycle activity and cellular methylation levels: 1) MAT2A inhibitor, FIDAS5; and 2) SAHH inhibitor, D9, which is an analog of DZNep. In a manner similar to amino acid starvation studies, TS cells were exposed transiently to the compounds for 48 h in culture and were immediately used for downstream tumorigenesis assays.

[6] = tested on: MTHFR abundance in GLDC KD cells; assay: Western blot of MTHFR in SAM supplemented GLDC KD cells; type: cell-based, human
Method: as §1

GLDC KD cells = assay: Tumor mass in NSG mice after transplantation of SAM supplemented GLDC KD cells; type: in vivo; details: GLDC KD cells supplemented with SAM for 48 hours before xenografting
Excerpt: as §2

TS cells (lung TICs) [7] = assay: Tumor formation in NSG mice after transplantation of pre-treated TS cells; type: in vivo
Excerpt: as §2, §5

TS cells (lung TICs) [8] = assay: Soft agar colony formation of pre-treated TS cells; type: cell-based, human
Method: 2.5 ml lower layer of 0.7% agar in complete DMEM/F12 with 10% fetal bovine serum was placed in 3 wells of a 6 well dish, and permitted to solidify. 2×10^4 Cells (for 3 wells) were then suspended in a 2 ml layer of 0.35% agar in complete DMEM/F12 with 10% fetal bovine serum and layered on top of the bottom layer. Colonies were stained with crystal violet and counted after approximately 2 months.
as §5

ATP levels in Adh cells = assay: Steady-state ATP levels (CellTiter-Glo) in Adh cells; type: cell-based, human; details: formate 0.5 mM
Method: as §3

[9] = tested on: histone methylation in MTHFR overexpressing+GLDC KD cells; assay: Western blot of methylated histones in MTHFR overexpressing+GLDC KD cells; type: cell-based, human; details: formate 0.5 mM
Method: as §4

[10] = methionine-starved TS cells (48 h) supplemented with SAM 500 μM or homocysteine 250 μM
[11] = TS cells, 500 μM SAM in the presence of FIDAS5

CC(C)C[C@@H](C=O)NC(=O)[C@H](CC(C)C)NC(=O)[C@H](CC(C)C)NC(=O)OCc1ccccc1 [MG132] (Cbz-Leu-Leu-Leu-aldehyde)
high turnover of methylated histones [1]: rescued

N.N.[Cl][Pt][Cl] [Cisplatin, cis-Diammineplatinum(II) dichloride]
tumor growth (TS cells (lung TICs) [2]): unable to halt tumor growth

Nc1ncnc2c1ncn2[C@@H]1O[C@H](CO)[C@@H](O)[C@H]1O [adenosine, Adenosine]
steady state ATP levels [3]: rescued ATP levels
histone methylation [4]: did not rescue

N[C@@H](CCS)C(=O)O [Homocysteine, homocysteine]
histone methylation [5, 10]: failed to rescue

C[S+](CC[C@H](N)C(=O)O)C[C@H]1O[C@@H](n2cnc3c(N)ncnc32)[C@H](O)[C@@H]1O (stereo partly drawn) [SAM, S-adenosyl methionine]
MTHFR abundance [6]: recovery of MTHFR abundance
tumorigenic potential (GLDC KD cells): incomplete rescue
tumor-formation capability (TS cells (lung TICs) [7]; TS cells, 500 μM SAM in the presence of FIDAS5, transplanted into NSG mice): rescued, to a large extent
tumor-forming capability (TS cells (lung TICs) [7]; methionine starvation conditions, SAM 500 μM supplemented, NSG mice): rescued
colony-formation capability (TS cells (lung TICs) [8]; [11]): rescued, to a large extent
colony-forming capability (TS cells (lung TICs) [8]; methionine starvation conditions, SAM 500 μM supplemented): rescued
histone methylation [5, 11]: rescued, to a large extent
histone methylation [5, 10]: restored
histone methylation [4]: reestablishment of histone methylation

O=C[O-].[Na+] [formate, Sodium formate]
ATP levels (ATP levels in Adh cells): could not rescue
histone methylation [9]: fully rescued
steady state ATP levels [3]: could be rescued; also recorded: rescued ATP levels
histone methylation [4]: did not rescue
